Read-outs that look alike come from different tables or passages of the source.
Experiments:
NEK7 = NEK7 (Homo sapiens (Human), UniProt Q8TDX7+Q96SW2); assay: NEK7 NanoBiT degradation assay in Cal51 NEK7 NanoBiT cell line; assay type: cell-based; details: Cal51 NEK7 NanoBiT cells, 24 hours; for Dmax: CAL-51
Outline: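 Cal51 cells with CRISPR knock-in HiBiT-tagged endogenous NEK7 plus stable LgBiT, in live-cell Endurazine medium, seeded 16 h before dosing. Compounds at final 1 μM to 0.05 nM for 24 h at 37 °C, then luminescence read. Response normalized to plate controls and fitted with a 4-parameter logistic giving EC50.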

CRBN-DDB1 = CRBN-DDB1 (Homo sapiens (Human), UniProt Q96SW2); assay: Compound binding to CRBN by HTRF assay
Sequence of CRBN-DDB1 (Q96SW2 whole entry): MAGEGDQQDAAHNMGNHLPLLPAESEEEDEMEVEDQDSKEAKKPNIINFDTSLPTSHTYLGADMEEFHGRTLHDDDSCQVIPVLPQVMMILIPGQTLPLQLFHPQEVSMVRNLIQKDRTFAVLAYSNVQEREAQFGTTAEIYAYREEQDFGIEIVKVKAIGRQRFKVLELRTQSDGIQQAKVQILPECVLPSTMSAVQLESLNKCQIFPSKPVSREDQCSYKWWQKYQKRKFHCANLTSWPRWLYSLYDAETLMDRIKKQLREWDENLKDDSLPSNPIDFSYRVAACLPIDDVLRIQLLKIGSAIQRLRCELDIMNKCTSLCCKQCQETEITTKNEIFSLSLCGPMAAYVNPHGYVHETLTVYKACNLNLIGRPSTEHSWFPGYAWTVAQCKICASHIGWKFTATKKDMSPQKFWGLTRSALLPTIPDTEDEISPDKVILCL
Sequence of CRBN-DDB1 (Q16531 whole entry partner): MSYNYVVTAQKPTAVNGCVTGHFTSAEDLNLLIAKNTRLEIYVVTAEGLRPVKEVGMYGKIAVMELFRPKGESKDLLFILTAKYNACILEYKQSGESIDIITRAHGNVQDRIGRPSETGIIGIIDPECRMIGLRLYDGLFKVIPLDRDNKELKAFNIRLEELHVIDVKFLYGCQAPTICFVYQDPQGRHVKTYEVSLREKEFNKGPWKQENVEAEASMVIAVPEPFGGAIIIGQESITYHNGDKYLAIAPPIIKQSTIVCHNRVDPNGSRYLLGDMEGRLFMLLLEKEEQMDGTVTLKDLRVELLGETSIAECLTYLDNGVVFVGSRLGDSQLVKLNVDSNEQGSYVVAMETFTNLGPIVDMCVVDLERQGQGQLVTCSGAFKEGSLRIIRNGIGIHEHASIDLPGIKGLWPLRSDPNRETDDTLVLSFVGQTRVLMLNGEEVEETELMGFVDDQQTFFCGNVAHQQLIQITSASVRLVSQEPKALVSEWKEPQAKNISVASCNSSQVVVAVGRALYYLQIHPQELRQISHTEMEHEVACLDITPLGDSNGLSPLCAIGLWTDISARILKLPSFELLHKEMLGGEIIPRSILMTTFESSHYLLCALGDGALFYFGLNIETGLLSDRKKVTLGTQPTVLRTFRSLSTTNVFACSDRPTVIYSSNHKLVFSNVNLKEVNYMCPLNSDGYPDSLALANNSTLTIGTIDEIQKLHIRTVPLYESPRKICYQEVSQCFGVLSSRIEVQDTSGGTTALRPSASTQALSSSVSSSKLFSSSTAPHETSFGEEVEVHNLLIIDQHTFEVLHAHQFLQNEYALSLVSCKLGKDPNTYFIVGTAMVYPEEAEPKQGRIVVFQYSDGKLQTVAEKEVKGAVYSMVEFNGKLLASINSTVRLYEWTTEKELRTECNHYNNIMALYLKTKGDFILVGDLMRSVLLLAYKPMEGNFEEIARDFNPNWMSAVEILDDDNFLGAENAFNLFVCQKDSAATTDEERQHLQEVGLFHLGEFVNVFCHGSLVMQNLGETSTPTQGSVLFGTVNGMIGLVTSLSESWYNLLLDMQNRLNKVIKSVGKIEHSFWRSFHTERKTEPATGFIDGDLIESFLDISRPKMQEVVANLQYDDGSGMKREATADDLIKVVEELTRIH
Outline: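 HTRF displacement of Cy5-thalidomide probe (100 nM) from His-tagged CRBN-DDB1 (2.5 nM) with anti-His terbium cryptate, in HEPES/NaCl/TCEP/EDTA/Tween20 buffer; 11-point 1:3 dilution series, 30 min at ambient temperature. Signal (665/620 nm) normalized to lenalidomide and DMSO controls; EC50 fitted, Ki by Cheng-Prusoff from geometric mean EC50.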

[1] = NEK7 degradation, read-out: NanoBiT Dmax
[2] = NEK7 degradation, read-out: NanoBiT DC50

Sequence of NEK7 (Q8TDX7 whole entry): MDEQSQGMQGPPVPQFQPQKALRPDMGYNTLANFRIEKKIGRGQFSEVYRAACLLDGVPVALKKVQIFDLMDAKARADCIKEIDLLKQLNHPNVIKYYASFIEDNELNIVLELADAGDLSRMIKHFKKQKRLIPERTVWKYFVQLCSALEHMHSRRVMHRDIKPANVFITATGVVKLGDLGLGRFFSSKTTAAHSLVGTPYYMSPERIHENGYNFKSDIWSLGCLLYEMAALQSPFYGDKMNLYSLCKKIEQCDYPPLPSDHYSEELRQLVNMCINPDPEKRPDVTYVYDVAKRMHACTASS
Sequence of NEK7 (Q96SW2 whole entry): as the sequence (Q96SW2 whole entry) above
Sequence of NEK7 (Q16531 2-1140 partner): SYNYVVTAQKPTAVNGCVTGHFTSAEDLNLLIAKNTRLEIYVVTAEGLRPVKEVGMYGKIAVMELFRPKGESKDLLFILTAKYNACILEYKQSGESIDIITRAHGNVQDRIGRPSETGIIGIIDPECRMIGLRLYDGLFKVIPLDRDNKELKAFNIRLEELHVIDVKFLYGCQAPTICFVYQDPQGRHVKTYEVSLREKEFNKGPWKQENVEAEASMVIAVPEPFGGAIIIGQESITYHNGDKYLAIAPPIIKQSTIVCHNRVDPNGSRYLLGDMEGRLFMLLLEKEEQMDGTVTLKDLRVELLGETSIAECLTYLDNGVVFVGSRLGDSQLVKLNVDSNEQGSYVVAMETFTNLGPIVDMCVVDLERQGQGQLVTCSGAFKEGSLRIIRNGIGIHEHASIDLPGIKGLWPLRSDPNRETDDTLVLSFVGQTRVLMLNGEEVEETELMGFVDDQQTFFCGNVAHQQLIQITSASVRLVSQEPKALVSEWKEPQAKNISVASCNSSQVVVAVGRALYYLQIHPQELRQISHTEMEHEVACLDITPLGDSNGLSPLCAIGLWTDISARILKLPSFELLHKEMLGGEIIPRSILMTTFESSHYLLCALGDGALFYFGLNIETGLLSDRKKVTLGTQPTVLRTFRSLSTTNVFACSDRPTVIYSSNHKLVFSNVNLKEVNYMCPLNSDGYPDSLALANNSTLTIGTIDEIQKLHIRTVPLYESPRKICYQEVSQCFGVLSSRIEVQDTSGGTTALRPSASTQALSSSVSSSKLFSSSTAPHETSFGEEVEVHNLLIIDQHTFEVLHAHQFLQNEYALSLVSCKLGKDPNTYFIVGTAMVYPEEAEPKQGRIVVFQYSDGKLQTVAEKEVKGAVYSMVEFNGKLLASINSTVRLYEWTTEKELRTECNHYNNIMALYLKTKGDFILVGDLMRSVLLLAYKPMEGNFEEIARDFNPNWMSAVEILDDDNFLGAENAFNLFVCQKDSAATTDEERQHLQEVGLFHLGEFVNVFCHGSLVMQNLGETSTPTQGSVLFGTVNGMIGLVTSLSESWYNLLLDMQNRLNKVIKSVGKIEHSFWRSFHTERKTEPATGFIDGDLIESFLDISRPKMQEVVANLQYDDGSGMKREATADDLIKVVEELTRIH

Row | SMILES | Dmax (NEK7; read-out: NEK7 NanoBiT Dmax) [%] | Dmax (NEK7; [1]) [%] | DC50 (NEK7; read-out: NEK7 NanoBiT DC50) [nM] | DC50 (NEK7; [2]) [nM] | EC50 (CRBN-DDB1) [nM] | EC50 (CRBN-DDB1; HTRF class, Cereblon binding) [nM]
1 | CC(C)(C(=O)NCc1cc(Cl)c(C2CCC(=O)NC2=O)c(Cl)c1)c1ccc2nnccc2c1 (stereo not drawn) [Compound 41] | 98 | > 75 | 0.4 | ≤ 100 | 60 | ≤ 100
2 | Cc1cc(C(C)(C)C(=O)NCc2cc(Cl)c(C3CCC(=O)NC3=O)c(Cl)c2)cc(=O)[nH]1 (stereo not drawn) [Compound 42, N-(3,5-dichloro-4-(2,6-dioxopiperidin-3-yl)benzyl)-2-methyl-2-(6-methyl-2-oxo-1,2-dihydropyridin-4-yl)propanamide] | 93 | > 75 | 20 | ≤ 100 | 180 | 100 to 1000
3 | CC(C)(C(=O)NCc1cc(Cl)c(C2CCC(=O)NC2=O)c(Cl)c1)c1ccc(S(N)(=O)=O)cc1F (stereo not drawn) [Compound 43] | 97 | > 75 | 1 | ≤ 100 | 40 | ≤ 100
4 | CC(C)(C(=O)NCc1cc(Cl)c(C2CCC(=O)NC2=O)c(Cl)c1)c1ccn2cnnc2c1 (stereo not drawn) [Compound 44] | 88 | > 75 | 38 | ≤ 100 | 230 | 100 to 1000
5 | CCn1ccc(C(C)(C)C(=O)NCc2cc(Cl)c(C3CCC(=O)NC3=O)c(Cl)c2)cc1=O (stereo not drawn) [Compound 45] | 91 | > 75 | 13 | ≤ 100 | 530 | 100 to 1000
6 | COc1nccc(C(C)(C)C(=O)NCc2cc(Cl)c(C3CCC(=O)NC3=O)c(Cl)c2)n1 (stereo not drawn) [Compound 46] | 71 | 50 to 75 | 61 | ≤ 100 | 50 | ≤ 100
7 | CC1(C(=O)NCc2cc(Cl)c(C3CCC(=O)NC3=O)c(Cl)c2)COc2ccccc2O1 (stereo not drawn) [Compound 47] | 85 | > 75 | 4 | ≤ 100 | 30 | ≤ 100
8 | CN1Cc2ccccc2CC1C(=O)NCc1cc(Cl)c(C2CCC(=O)NC2=O)c(Cl)c1 (stereo not drawn) [Compound 48] | 66 | 50 to 75 | 54 | ≤ 100 | 130 | 100 to 1000
9 | CC(C)(C(=O)NCc1cc(Cl)c(C2CCC(=O)NC2=O)c(Cl)c1)c1ccc2nccnc2c1 (stereo not drawn) [Compound 49] | 99 | > 75 | 0.1 | ≤ 100 | 70 | ≤ 100
10 | CC(C)(C(=O)NCc1cc(Cl)c(C2CCC(=O)NC2=O)c(Cl)c1)c1ccc(NS(C)(=O)=O)cc1 (stereo not drawn) [Compound 50] | 88 | > 75 | 18 | ≤ 100 | 150 | 100 to 1000
11 | CC(C)(C(=O)NCc1cc(Cl)c(C2CCC(=O)NC2=O)c(Cl)c1)c1ccc(C(N)=O)cc1F (stereo not drawn) [Compound 51] | 96 | > 75 | 1 | ≤ 100 | 70 | ≤ 100
12 | CC(C)(C(=O)NCc1cc(Cl)c(C2CCC(=O)NC2=O)c(Cl)c1)c1cnc2ncsc2c1 (stereo not drawn) [Compound 52] | 67 | 50 to 75 | 59 | ≤ 100 | 90 | ≤ 100
13 | Cc1cc(C(C)(C)C(=O)NCc2cc(Cl)c(C3CCC(=O)NC3=O)c(Cl)c2)cc(=O)n1C (stereo not drawn) [Compound 53] | 92 | > 75 | 11 | ≤ 100 | 190 | 100 to 1000
14 | CC(C)(C(=O)NCc1cc(Cl)c(C2CCC(=O)NC2=O)c(Cl)c1)c1cccc(NS(C)(=O)=O)c1 (stereo not drawn) [Compound 54] | 97 | > 75 | 1 | ≤ 100 | 60 | ≤ 100
15 | CC(C)(C(=O)NCc1cc(Cl)c(C2CCC(=O)NC2=O)c(Cl)c1)c1ccn2ccnc2c1 (stereo not drawn) [Compound 55] | 97 | > 75 | 1 | ≤ 100 | 100 | 100 to 1000
16 | CC(C)(C(=O)NCc1ccc(C2CCC(=O)NC2=O)c(Cl)c1)c1ccc(S(N)(=O)=O)cc1 (stereo not drawn) [Compound 56] | 67 | 50 to 75 | 244 | 100 to 1000 | 470 | 100 to 1000
17 | CC(C)(C(=O)NCc1cc(Cl)c(C2CCC(=O)NC2=O)c(Cl)c1)c1ccc(C(N)=O)c(F)c1 (stereo not drawn) [Compound 57] | 94 | > 75 | 3 | ≤ 100 | 130 | 100 to 1000
18 | CN(C)S(=O)(=O)c1ccc(C(C)(C)C(=O)NCc2cc(Cl)c(C3CCC(=O)NC3=O)c(Cl)c2)cc1 (stereo not drawn) [Compound 58] | 92 | > 75 | 6 | ≤ 100 | 130 | 100 to 1000
19 | CC(C)(C(=O)NCc1cc(Cl)c(C2CCC(=O)NC2=O)c(Cl)c1)c1cc(F)[nH]c(=O)c1 (stereo not drawn) [Compound 59] | 87 | > 75 | 28 | ≤ 100 | 140 | 100 to 1000
20 | CC(C)(C(=O)NCc1cc(Cl)c(C2CCC(=O)NC2=O)c(Cl)c1)c1cccc(S(N)(=O)=O)c1 (stereo not drawn) [Compound 60] | 96 | > 75 | 2 | ≤ 100 | 60 | ≤ 100

Continued, values first:

Row | Dmax (NEK7; read-out: NEK7 NanoBiT Dmax) [%] | Dmax (NEK7; [1]) [%] | DC50 (NEK7; read-out: NEK7 NanoBiT DC50) [nM] | DC50 (NEK7; [2]) [nM] | EC50 (CRBN-DDB1) [nM] | EC50 (CRBN-DDB1; HTRF class, Cereblon binding) [nM] | SMILES
21 | 97 | > 75 | 2 | ≤ 100 | 60 | ≤ 100 | CNS(=O)(=O)c1ccc(C(C)(C)C(=O)NCc2cc(Cl)c(C3CCC(=O)NC3=O)c(Cl)c2)cc1 (stereo not drawn) [Compound 61]
22 | 96 | > 75 | 2 | ≤ 100 | 50 | ≤ 100 | CC(C)(C(=O)NCc1cc(Cl)c(C2CCC(=O)NC2=O)c(Cl)c1)c1cccc(S(C)(=O)=O)c1 (stereo not drawn) [Compound 62]
23 | 62 | 50 to 75 | 91 | ≤ 100 | 140 | 100 to 1000 | CC(C)(C(=O)NCc1cc(Cl)c(C2CCC(=O)NC2=O)c(Cl)c1)c1ccnc2ccccc12 (stereo not drawn) [Compound 63]
24 | 86 | > 75 | 43 | ≤ 100 | 490 | 100 to 1000 | CC(C)(C(=O)NCc1ccc(C2CCC(=O)NC2=O)c(Br)c1)c1ccc(F)cc1 (stereo not drawn) [Compound 64]
25 | 98 | > 75 | 1 | ≤ 100 | 140 | 100 to 1000 | CC(C)(C(=O)NCc1cc(Cl)c(C2CCC(=O)NC2=O)c(Cl)c1)c1cccc(C(N)=O)c1 (stereo not drawn) [Compound 65]
26 | 96 | > 75 | 3 | ≤ 100 | 90 | ≤ 100 | CC(C)(C(=O)NCc1cc(Cl)c(C2CCC(=O)NC2=O)c(Cl)c1)c1ccc(S(C)(=O)=O)cc1 (stereo not drawn) [Compound 66]
27 | 74 | 50 to 75 | 95 | ≤ 100 | 220 | 100 to 1000 | Cn1cc(C(C)(C)C(=O)NCc2cc(Cl)c(C3CCC(=O)NC3=O)c(Cl)c2)ccc1=O (stereo not drawn) [Compound 67]
28 | 97 | > 75 | 1 | ≤ 100 | 90 | ≤ 100 | CC(C)(C(=O)NCc1cc(Cl)c(C2CCC(=O)NC2=O)c(Cl)c1)c1c(F)cncc1F (stereo not drawn) [Compound 68]
29 | 97 | > 75 | 1 | ≤ 100 | 60 | ≤ 100 | CC(C)(C(=O)NCc1cc(Cl)c(C2CCC(=O)NC2=O)c(Cl)c1)c1ccc2[nH]cnc2c1 (stereo not drawn) [Compound 69]
30 | 97 | > 75 | 0.5 | ≤ 100 | 60 | ≤ 100 | CC(C)(C(=O)NCc1cc(Cl)c(C2CCC(=O)NC2=O)c(Cl)c1)c1ccc2[nH]ncc2c1 (stereo not drawn) [Compound 70]
31 | 90 | > 75 | 9 | ≤ 100 | 140 | 100 to 1000 | CN(C)c1ccc(C(C)(C)C(=O)NCc2cc(Cl)c(C3CCC(=O)NC3=O)c(Cl)c2)cc1 (stereo not drawn) [Compound 71]
32 | 90 | > 75 | 11 | ≤ 100 | 470 | 100 to 1000 | Cn1c(=O)[nH]c2cc(C(C)(C)C(=O)NCc3cc(Cl)c(C4CCC(=O)NC4=O)c(Cl)c3)ccc21 (stereo not drawn) [Compound 72]
33 | 93 | > 75 | 4 | ≤ 100 | 170 | 100 to 1000 | CC(C)(C(=O)NCc1cc(Cl)c(C2CCC(=O)NC2=O)c(Cl)c1)c1cc(F)nc(F)c1 (stereo not drawn) [Compound 73]
34 | 97 | > 75 | 1 | ≤ 100 | 30 | ≤ 100 | CC(C)(C(=O)NCc1cc(Cl)c(C2CCC(=O)NC2=O)c(Cl)c1)c1ccc2ncsc2c1 (stereo not drawn) [Compound 74]
35 | 92 | > 75 | 14 | ≤ 100 | 300 | 100 to 1000 | Cn1ccc(C(C)(C)C(=O)NCc2cc(Cl)c(C3CCC(=O)NC3=O)c(Cl)c2)cc1=O (stereo not drawn) [Compound 75]

From patent US20250243180A1, “TARGETED PROTEIN DEGRADATION” (Monte Rosa Therapeutics AG, priority 2023, published 2025)
